In PubChem BioAssay (NCI):
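In this assay, cells in 96-well plates receive the compound at five concentrations for 48 hours. Endpoints are linearly interpolated between the surrounding concentrations. TGI marks complete inhibition of growth.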

Columns and labels:
Test in all cases: NCI tumour cell line growth inhibition, 48 h
NCI-H226 lung = system: NCI-H226 lung
SK-MEL-5 melanoma = system: SK-MEL-5 melanoma
MDA-MB-435 = system: MDA-MB-435
HT29 colon = system: HT29 colon
ACHN renal = system: ACHN renal
OVCAR-8 ovarian = system: OVCAR-8 ovarian
SNB-19 CNS = system: SNB-19 CNS
EKVX NSCLC = system: EKVX NSCLC
UACC-62 melanoma = system: UACC-62 melanoma
DU-145 prostate = system: DU-145 prostate
UO-31 renal = system: UO-31 renal
BT-549 breast = system: BT-549 breast
TK-10 renal = system: TK-10 renal
HS 578T breast = system: HS 578T breast
SW-620 colon = system: SW-620 colon
786-0 renal = system: 786-0 renal
SF-539 CNS = system: SF-539 CNS
RPMI-8226 leukemia = system: RPMI-8226 leukemia
COLO 205 colon = system: COLO 205 colon
HCT-15 colon = system: HCT-15 colon
SK-MEL-28 melanoma = system: SK-MEL-28 melanoma
SN12C renal = system: SN12C renal
KM12 colon = system: KM12 colon
SF-295 CNS = system: SF-295 CNS
MALME-3M melanoma = system: MALME-3M melanoma
NCI/ADR-RES ovarian = system: NCI/ADR-RES ovarian
MDA-N = system: MDA-N
UACC-257 melanoma = system: UACC-257 melanoma
U251 CNS = system: U251 CNS
MCF7 breast = system: MCF7 breast
RXF 393 renal = system: RXF 393 renal
CCRF-CEM leukemia = system: CCRF-CEM leukemia
A498 renal = system: A498 renal
A549 NSCLC = system: A549 NSCLC
PC-3 prostate = system: PC-3 prostate
NCI-H23 lung = system: NCI-H23 lung
SNB-75 CNS = system: SNB-75 CNS
HCT-116 colon = system: HCT-116 colon
NCI-H460 lung = system: NCI-H460 lung
SK-MEL-2 melanoma = system: SK-MEL-2 melanoma
NCI-H522 lung = system: NCI-H522 lung
HOP-62 NSCLC = system: HOP-62 NSCLC
SF-268 CNS = system: SF-268 CNS
T-47D breast = system: T-47D breast
CAKI-1 renal = system: CAKI-1 renal
M14 melanoma = system: M14 melanoma
HOP-92 NSCLC = system: HOP-92 NSCLC
HCC-2998 colon = system: HCC-2998 colon
SK-OV-3 ovarian = system: SK-OV-3 ovarian
LOX IMVI melanoma = system: LOX IMVI melanoma
OVCAR-3 ovarian = system: OVCAR-3 ovarian
MDA-MB-231 breast = system: MDA-MB-231 breast
OVCAR-4 ovarian = system: OVCAR-4 ovarian
K-562 leukemia = system: K-562 leukemia
MOLT-4 leukemia = system: MOLT-4 leukemia
IGROV1 ovarian = system: IGROV1 ovarian
SR leukemia = system: SR leukemia
OVCAR-5 ovarian = system: OVCAR-5 ovarian

For `Nc1ccc2c(c1)C(=O)c1c(F)cccc1-2`, the TGI (NCI-H226 lung) was over 100 µM, the TGI (SK-MEL-5 melanoma) was 95.1 µM and the TGI (MDA-MB-435) was over 100 µM. For the same compound, the TGI (HT29 colon) was over 100 µM, the TGI (ACHN renal) was over 100 µM and the TGI (OVCAR-8 ovarian) was over 100 µM. The TGI (SNB-19 CNS) was over 100 µM, the TGI (EKVX NSCLC) was 37.7 µM and the TGI (UACC-62 melanoma) was over 100 µM. It also gave a TGI (DU-145 prostate) of over 100 µM, a TGI (UO-31 renal) of over 100 µM and a TGI (BT-549 breast) of over 100 µM. It also gave a TGI (TK-10 renal) of over 100 µM, a TGI (HS 578T breast) of over 100 µM and a TGI (SW-620 colon) of over 100 µM. It also gave a TGI (786-0 renal) of over 100 µM, a TGI (SF-539 CNS) of 81.1 µM and a TGI (RPMI-8226 leukemia) of over 100 µM. The TGI (COLO 205 colon) was over 100 µM, the TGI (HCT-15 colon) was over 100 µM and the TGI (SK-MEL-28 melanoma) was over 100 µM. The TGI (SN12C renal) was over 100 µM, the TGI (KM12 colon) was over 100 µM and the TGI (SF-295 CNS) was over 100 µM. The TGI (MALME-3M melanoma) was over 100 µM, the TGI (NCI/ADR-RES ovarian) was over 100 µM and the TGI (MDA-N) was over 100 µM. For the same compound, the TGI (UACC-257 melanoma) was over 100 µM, the TGI (U251 CNS) was over 100 µM and the TGI (MCF7 breast) was 41.7 µM. It also gave a TGI (RXF 393 renal) of over 100 µM, a TGI (CCRF-CEM leukemia) of over 100 µM and a TGI (A498 renal) of over 100 µM. It also gave a TGI (A549 NSCLC) of over 100 µM, a TGI (PC-3 prostate) of over 100 µM and a TGI (NCI-H23 lung) of over 100 µM. For the same compound, the TGI (SNB-75 CNS) was over 100 µM, the TGI (HCT-116 colon) was over 100 µM and the TGI (NCI-H460 lung) was over 100 µM. It also gave a TGI (SK-MEL-2 melanoma) of over 100 µM, a TGI (NCI-H522 lung) of over 100 µM and a TGI (HOP-62 NSCLC) of over 100 µM. The TGI (SF-268 CNS) was over 100 µM, the TGI (T-47D breast) was over 100 µM and the TGI (CAKI-1 renal) was over 100 µM. The TGI (M14 melanoma) was over 100 µM, the TGI (HOP-92 NSCLC) was 93.3 µM and the TGI (HCC-2998 colon) was over 100 µM. For the same compound, the TGI (SK-OV-3 ovarian) was over 100 µM, the TGI (LOX IMVI melanoma) was over 100 µM and the TGI (OVCAR-3 ovarian) was over 100 µM. It also gave a TGI (MDA-MB-231 breast) of over 100 µM.
With `CCc1n[nH]c(=O)n1N1C(=O)C2CC=CCC2C1=O` (stereo not drawn) the TGI (NCI-H226 lung) was over 100 µM, the TGI (SK-MEL-5 melanoma) was over 100 µM and the TGI (MDA-MB-435) was over 100 µM. The TGI (OVCAR-4 ovarian) was over 100 µM, the TGI (HT29 colon) was over 100 µM and the TGI (ACHN renal) was over 100 µM. The TGI (OVCAR-8 ovarian) was over 100 µM, the TGI (SNB-19 CNS) was over 100 µM and the TGI (EKVX NSCLC) was over 100 µM. For the same compound, the TGI (UACC-62 melanoma) was over 100 µM, the TGI (K-562 leukemia) was over 100 µM and the TGI (UO-31 renal) was over 100 µM. For the same compound, the TGI (MOLT-4 leukemia) was over 100 µM, the TGI (BT-549 breast) was over 100 µM and the TGI (TK-10 renal) was over 100 µM. For the same compound, the TGI (HS 578T breast) was over 100 µM, the TGI (IGROV1 ovarian) was over 100 µM and the TGI (SW-620 colon) was over 100 µM. The TGI (786-0 renal) was over 100 µM, the TGI (SF-539 CNS) was over 100 µM and the TGI (RPMI-8226 leukemia) was over 100 µM. The TGI (COLO 205 colon) was over 100 µM, the TGI (HCT-15 colon) was over 100 µM and the TGI (SN12C renal) was over 100 µM. The TGI (KM12 colon) was over 100 µM, the TGI (SF-295 CNS) was over 100 µM and the TGI (MALME-3M melanoma) was over 100 µM. It also gave a TGI (NCI/ADR-RES ovarian) of over 100 µM, a TGI (MDA-N) of over 100 µM and a TGI (UACC-257 melanoma) of over 100 µM. For the same compound, the TGI (U251 CNS) was over 100 µM, the TGI (SR leukemia) was over 100 µM and the TGI (MCF7 breast) was over 100 µM. It also gave a TGI (RXF 393 renal) of over 100 µM, a TGI (CCRF-CEM leukemia) of over 100 µM and a TGI (A498 renal) of over 100 µM. For the same compound, the TGI (OVCAR-5 ovarian) was over 100 µM, the TGI (A549 NSCLC) was over 100 µM and the TGI (PC-3 prostate) was over 100 µM. It also gave a TGI (NCI-H23 lung) of over 100 µM, a TGI (SNB-75 CNS) of over 100 µM and a TGI (HCT-116 colon) of over 100 µM. It also gave a TGI (NCI-H460 lung) of over 100 µM, a TGI (SK-MEL-2 melanoma) of over 100 µM and a TGI (NCI-H522 lung) of over 100 µM. It also gave a TGI (HOP-62 NSCLC) of over 100 µM, a TGI (SF-268 CNS) of over 100 µM and a TGI (T-47D breast) of over 100 µM. For the same compound, the TGI (CAKI-1 renal) was over 100 µM, the TGI (M14 melanoma) was over 100 µM and the TGI (HOP-92 NSCLC) was over 100 µM. The TGI (HCC-2998 colon) was over 100 µM, the TGI (SK-OV-3 ovarian) was over 100 µM and the TGI (LOX IMVI melanoma) was over 100 µM. It also gave a TGI (OVCAR-3 ovarian) of over 100 µM and a TGI (MDA-MB-231 breast) of over 100 µM.
